US8481458B2, “Adjuvant for pesticides” (priority 2002, dated 2013)

Key:
Eastern Tent caterpillar = assay: Ingestion insecticide sprayed on the tent; type: in vivo; settings: evaluated 1 day after application
Experimental: This test involved the evaluation of an ingestion insecticide on the Eastern Tent caterpillar. The insecticide was mixed in a tank at the shown rate and sprayed on the tent, and the evaluation was performed after 1 day following application.

Xanthomonas campestris = assay: Bactericide on bacterial leaf spot on tomatoes; type: in vivo; settings: tomato plants innoculated with the bacteria; ratings after two weeks
Text: The tomato plants were innoculated with the bacteria. […] The ratings were made after two weeks on the percent leaves infected.

cotton = assay: Cotton defoliation with oxalic acid, EDTA, citric acid as adjuvants, field plots; type: in vivo; settings: Day 7 after spraying, test size field plots
Experimental: Oxalic acid (Adj II), EDTA (Adj III), and citric acid (Adj IV) were used as an adjuvants with harvest aid chemicals and compared to the commercial products ethephon and ethephon plus cyclanilide. The comparison was for defoliation only at 7 days after spraying on cotton. The tests were conducted on test size field plots, at dosages of 1 pound or 0.5 pounds per acre (#/ac).

potato vines = assay: Dessication of potato vines before harvest (speed); type: in vivo; settings: for Defol %: at the time printed in column Hour; for Hour: time at which the printed Defol % was seen
Text: This example was used to how various permeabilizers are able to improve the speed in which various active components are able to obtain their desired effects on treated plants. In this example, a combination of oxalic acid and citric acid (Adjuvant 1) was used in combination with the harvest aid chemicals paraquat and diquat for the dessication of potato vines before harvest and compared to the commercial rates paraquat and diquat.

[1] = system: fireblight on Southern Crepe Myrtle; assay: Streptomycin for control of fireblight on Southern Crepe Myrtle; settings: infected plants sprayed until wet; ratings after two days
Alternaria solani = assay: Fungicide for control of Early Blight on tomatoes; type: in vivo; settings: tomato plants innoculated with the fungi; ratings after one week
Text: The tomato plants were innoculated with the fungi. The ratings were made after one week on the percent leaves infected with Alternaria and also the number with bad damage—necrosis.

SMILES: CS/C(C)=N\OC(=O)N(C)SN(C)C(=O)O/N=C(\C)SC [Thiodicarb 0.1%, Thiodicarb]
- Insecticide Efficacy (Eastern Tent caterpillar): 32%

SMILES: [Cu+2].[OH-].[OH-] [Copper 2#/acre, copper hydroxide]
- Percent Leaves Infected (Xanthomonas campestris): 63%

SMILES: O=P(O)(O)CCCl [eth 1#/ac, ethephon]
- Defol % (cotton): 72%

SMILES: C[n+]1ccc(-c2cc[n+](C)cc2)cc1 [paraquat 2 qt/ac, paraquat]
- Defol % (potato vines): 98%
- Hour (potato vines): 36 h

SMILES: c1cc[n+]2c(c1)-c1cccc[n+]1CC2 [diquat 2 qt/ac, diquat]
- Defol % (potato vines): 96%
- Hour (potato vines): 24 h

SMILES: [H]/N=C(/N)N[C@H]1[C@H](O)[C@@H](O)[C@H](O[C@@H]2O[C@@H](C)[C@](O)(C=O)[C@H]2O[C@@H]2O[C@@H](CO)[C@H](O)[C@@H](O)[C@@H]2NC)[C@@H](N/C(N)=N\[H])[C@@H]1O [Streptomycin, streptomycin]
- Level Required for Control [1]: 60 ppm

SMILES: N#Cc1c(Cl)c(Cl)c(Cl)c(C#N)c1Cl [Chlorothalonil 2.5 pt/ac, chlorothalonil]
- Infected Leaflets (Alternaria solani): 60%
- Infected Leaves (Alternaria solani): 42%
- Leaflets with >50% Necrosis (Alternaria solani): 42%
